Data: PubChem BioAssay (NCI)
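Cultured in 96-well plates, cells were exposed to test compound for 48 hours across five concentrations. At the GI50, growth is halved. At the TGI there is no net growth.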

How the values were obtained:
Assay in all cases: NCI tumour cell line growth inhibition, 48 h
HCT-116 colon = system: HCT-116 colon
RPMI-8226 leukemia = system: RPMI-8226 leukemia
OVCAR-8 ovarian = system: OVCAR-8 ovarian
OVCAR-3 ovarian = system: OVCAR-3 ovarian
KM12 colon = system: KM12 colon
NCI-H23 lung = system: NCI-H23 lung
A549 NSCLC = system: A549 NSCLC
NCI-H522 lung = system: NCI-H522 lung
MCF7 breast = system: MCF7 breast
DU-145 prostate = system: DU-145 prostate
NCI-H460 lung = system: NCI-H460 lung
K-562 leukemia = system: K-562 leukemia
NCI-H226 lung = system: NCI-H226 lung
HOP-92 NSCLC = system: HOP-92 NSCLC
UO-31 renal = system: UO-31 renal
SNB-75 CNS = system: SNB-75 CNS
RXF 393 renal = system: RXF 393 renal
U251 CNS = system: U251 CNS
SK-MEL-28 melanoma = system: SK-MEL-28 melanoma
HT29 colon = system: HT29 colon
SF-295 CNS = system: SF-295 CNS
HS 578T breast = system: HS 578T breast
SF-539 CNS = system: SF-539 CNS
COLO 205 colon = system: COLO 205 colon
SF-268 CNS = system: SF-268 CNS
IGROV1 ovarian = system: IGROV1 ovarian
UACC-257 melanoma = system: UACC-257 melanoma
LOX IMVI melanoma = system: LOX IMVI melanoma
MDA-MB-435 = system: MDA-MB-435

COc1ccc(C#Cc2ccc(=O)oc2-c2cc(OC)c(OC)c(OC)c2)cc1O
GI50 (HCT-116 colon): 3.28 µM
TGI (HCT-116 colon): > 100 µM
GI50 (RPMI-8226 leukemia): 7.83 µM
TGI (RPMI-8226 leukemia): > 88 µM
GI50 (OVCAR-8 ovarian): 10.6 µM
TGI (OVCAR-8 ovarian): > 100 µM
GI50 (OVCAR-3 ovarian): 1.81 µM
TGI (OVCAR-3 ovarian): 28.5 µM
GI50 (KM12 colon): 3.54 µM
TGI (KM12 colon): > 100 µM
GI50 (NCI-H23 lung): 10.7 µM
TGI (NCI-H23 lung): > 100 µM
GI50 (A549 NSCLC): 7.08 µM
TGI (A549 NSCLC): > 100 µM
GI50 (NCI-H522 lung): 1.1 µM
TGI (NCI-H522 lung): 22.3 µM
GI50 (MCF7 breast): 0.666 µM
TGI (MCF7 breast): > 100 µM
GI50 (DU-145 prostate): 8.96 µM
TGI (DU-145 prostate): > 85.9 µM
GI50 (NCI-H460 lung): 0.973 µM
TGI (NCI-H460 lung): > 100 µM
GI50 (K-562 leukemia): 0.505 µM
TGI (K-562 leukemia): > 100 µM
GI50 (NCI-H226 lung): > 34 µM
TGI (NCI-H226 lung): > 100 µM
GI50 (HOP-92 NSCLC): 0.575 µM
TGI (HOP-92 NSCLC): 38.8 µM
GI50 (UO-31 renal): 11.1 µM
TGI (UO-31 renal): > 79.8 µM
GI50 (SNB-75 CNS): 5.52 µM
TGI (SNB-75 CNS): 27.8 µM
GI50 (RXF 393 renal): 1.12 µM
TGI (RXF 393 renal): 8.43 µM
GI50 (U251 CNS): 5.4 µM
TGI (U251 CNS): > 100 µM
GI50 (SK-MEL-28 melanoma): 18.2 µM
TGI (SK-MEL-28 melanoma): > 100 µM
GI50 (HT29 colon): 7.98 µM
TGI (HT29 colon): > 35.6 µM
GI50 (SF-295 CNS): 4.49 µM
TGI (SF-295 CNS): > 45.2 µM
GI50 (HS 578T breast): 7.4 µM
TGI (HS 578T breast): > 81.9 µM
GI50 (SF-539 CNS): 6.27 µM
TGI (SF-539 CNS): 40.4 µM
GI50 (COLO 205 colon): 37.3 µM
TGI (COLO 205 colon): > 100 µM
GI50 (SF-268 CNS): 7.23 µM
TGI (SF-268 CNS): > 90.8 µM
GI50 (IGROV1 ovarian): 1.02 µM
TGI (IGROV1 ovarian): 6.75 µM
GI50 (UACC-257 melanoma): 7.87 µM
TGI (UACC-257 melanoma): > 100 µM
GI50 (LOX IMVI melanoma): 12.3 µM
TGI (LOX IMVI melanoma): > 100 µM
GI50 (MDA-MB-435): 0.234 µM
